These results are taken from patent publication US11752162B2, “Compounds and compositions for treating solid tumors by intratumoral administration” (Novartis AG, priority 2017, dated 2023).

Series [1] is described as follows: Binding efficiency of Compound 15 to aluminum-containing particles (Alhydrogel) in Tris buffer. The class given is physicochemical. An excerpt:
The efficiency of binding of compounds of Formula (A) to aluminum-containing particles, as reflected in the percentage (%) bound to aluminum-containing particles, is a function of the (weight/weight) ratio of aluminum-containing particles to compound and to the final concentration (mg/mL) of compound in suspension with aluminum hydroxide. By way of example, the dependence of binding efficiency on the aluminum-containing particles to compound (w/w) ratio is shown in Table 8, where the final concentration of Compound 15 is fixed at 2 mg/mL and the amount of aluminum hydroxide is varied to obtain the desired ratio. The percentage of Compound 15 bound were obtained as described above in the “Materials and Method”, and the suspensions of Compound 15/Alhydrogel® were prepared in 20 mM Tris buffer (pH 7.4) as described above in “Compound 15/Alhydrogel® Suspensions”.
In addition, for (w/w) ratios of aluminum-containing particles to compound of 1.5:1 and below, the binding efficiency has an apparent pH dependence. The effect of pH on binding efficiency is seen in Table 10, where the binding efficiency of Compound 15 at either a ratio of aluminum hydroxide to Compound 15 (w/w) of 1.5:1 or 2:1 is given shown. The percentage of Compound bound was obtained as described above, although in Tris buffer at differing pH values. The suspensions of Compound 15/Alhydrogel® in Tris buffer at various were prepared as described above in “Compound 15/Alhydrogel® Suspensions”.

The nature of series [2]: Wistar rat subcutaneous PK dose study (Example 9). The class given is in vivo. The settings on record: sc, 600 ug, 600 μg Compound 15 s.c., male Wistar rats, plasma. The protocol: The pharmacokinetic properties of Compound 15 were examined in naïve male Wistar rats following: • a) a single 200 μL subcutaneous (s.c.) injection of 600 μg of free form Compound 15 in 100 mM Tris buffer pH 7.4; • b) a single 200 μL subcutaneous (s.c.) injection of 50 μg of Compound 15 adsorbed to aluminum hydroxide at a 1:2.5 ratio (w/w) of Compound 15 to aluminum hydroxide-Suspension E described below; • c) a single 200 μL subcutaneous (s.c.) injection of 200 μg of Compound 15 adsorbed to aluminum hydroxide at a 1:2.5 ratio (w/w) of Compound 15 to aluminum hydroxide-Suspension D described below, and • d) a single 200 μL subcutaneous (s.c.) injection of 600 μg of Compound 15 adsorbed to aluminum hydroxide at a 1:2.5 ratio (w/w) of Compound 15 to aluminum hydroxide-Suspension C described below.
In this study, male Wistar rats (n=3 per group) were injected subcutaneously (s.c.) with 600 μg free Compound 15 or increasing doses of 50, 200 and 600 μg of Compound 15 absorbed to aluminum hydroxide. An injection volume of 200 μL of Suspension E, Suspension D and Suspension C was used to obtain 50, 200 and 600 μg of Compound 15 absorbed to aluminum hydroxide, respectively. The injection volume of 200 μL per rat was not normalized to body weights of the rats. As described above the Compound 15/aluminum hydroxide ratio for Suspension E, Suspension D and Suspension C was fixed at 1:2.5 w/w.
Blood samples (˜100 μL each) were taken serially via saphenous bleed from each rat until 96 h post dose (see Table 9 for sampling schedule). Blood samples were centrifuged to separate plasma and the plasma samples were frozen at −20° C. prior to analysis using LC/MS/MS (as described in Example 5) to obtain the systemic concentrations of Compound 15.

Series [3] is described as follows: Wistar rat subcutaneous PK, fixed aluminum hydroxide 5 mg/mL (Example 10). The class given is in vivo. The protocol:
The pharmacokinetic properties of Compound 15 were examined in naïve male Wistar rats following: • a) a single 200 μL subcutaneous (s.c.) injection of 600 μg of free form Compound 15 in 100 mM Tris buffer pH 7.4; • b) a single 200 μL subcutaneous (s.c.) injection of 50 μg of Compound 15 adsorbed to aluminum hydroxide at a 1:20 ratio (w/w) of Compound 15 to aluminum hydroxide-Suspension G described below; • and • c) a single 200 μL subcutaneous (s.c.) injection of 600 μg of Compound 15 adsorbed to aluminum hydroxide at a 1:1.7 ratio (w/w) of Compound 15 to aluminum hydroxide-Suspension F described below.
The systemic concentration of Compound 15 was evaluated following a single 200 μL subcutaneous injection of two different dose levels of Compound 15 adsorbed to aluminum hydroxide, where the aluminum hydroxide was at a fixed dose concentration of 5 mg/mL.
In this study, two groups male Wistar rats (n=3 per group) were injected subcutaneously (s.c.) with either 50 μg or 600 μg of Compound 15 absorbed to aluminum hydroxide. An injection volume of 200 μL of Suspension G and Suspension F was used to obtain 50 and 600 μg of Compound 15 absorbed to aluminum hydroxide, respectively. The injection volume of 200 μL per rat was not normalized to body weights of the rats. As described above the Compound 15/aluminum hydroxide ratio for Suspension F was 1:1.7 w/w, while for Suspension G it was 1:20 w/w.
Blood samples (˜100 μL each) were taken serially via saphenous bleed from each rat until 168 h post dose (see Table 9 for sampling schedule). Blood samples were centrifuged to separate plasma and the plasma samples were frozen at −20° C. prior to analysis using LC/MS/MS (as described in Example 5) to obtain the systemic concentrations of Compound 15.

The conditions of series [4]: female, C57/BL6, mouse, in vivo, iv, 2 mg/kg.
Setting [5] is: Compound 15 2 mg/mL, aluminum 0.2 mg/mL, ratio 0.1:1, 20 mM Tris pH 7.4.
Setting [6] is: Compound 15 2 mg/mL, aluminum 4 mg/mL, ratio 2:1, 20 mM Tris pH 7.4.
Setting [7] is: rat, sc, 600 ug, 600 μg Compound 15 s.c., male Wistar rats, plasma, Table 15 (free compound data from Example 9).

As to `Cc1cc(OCCOCCC(F)(F)P(=O)(O)O)ccc1CCc1cnc2c(N)nc3cc(CCC(=O)O)ccc3c2c1` [Compound 15, 3-(5-amino-2-(4-(2-(3,3-difluoro-3-phosphonopropoxy)ethoxy)-2-methylphenethyl)benzo[f][1,7]naphthyridin-8-yl)propanoic acid], the “Compound 15 % Bound” value turned out to be 12.5% in series [1] (setting [5]); 25.7% in series [1] (Compound 15 2 mg/mL, aluminum 0.5 mg/mL, ratio 0.25:1, 20 mM Tris pH 7.4); 99.7% in series [1] (setting [6]); 91.1% in series [1] (aluminum hydroxide:Compound 15 ratio (w/w) 1.5:1, Tris buffer pH 8); 99.7% in series [1] (aluminum hydroxide:Compound 15 ratio (w/w) 2:1, Tris buffer pH 7.5). Also, the “Compound 15 % Free” value in series [1] (setting [5]) worked out at 87.5%; in series [1] (Compound 15 2 mg/mL, aluminum 1 mg/mL, ratio 0.5:1, 20 mM Tris pH 7.4) it was 56.5%; in series [1] (setting [6]) it was 0.3%. The total exposure AUC(0-inf) in series [2] and in series [3] (setting [7]) was 2560 ng·h/mL in each case. For the same compound, the Cmax in series [2] and in series [3] (setting [7]) was 3660 ng/mL throughout. For the same compound, the Tmax in series [2] and in series [3] (setting [7]) was 0.25 h throughout. The half-life in series [2] and in series [3] (setting [7]) was 2.1 h each time. Also, in series [3] (adsorbed onto aluminum hydroxide, following subcutaneous injection, rats), the “retention of Compound 15 at the local injection site” value is reported as “up to 1 week”. For the same compound, in series [4], the “plasma clearance as % of mouse liver blood flow” value was around 20%.
